Test systems include CCRF-CEM; 786-0; RXF 393; COLO 205; HCT-15; MCF7; A549; IGROV-1; BT-549; DU-145; SK-MEL-28; TK-10; U-251; UACC-62; RPMI-8226; SN12C; T47D; Malme-3M; SK-OV-3; SF-539.
Common to all, as to assay: inhibition of tumour cell growth, NCI panel, 48 h

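The compound was tested at five concentrations on cells cultured in 96-well plates, with a 48-hour exposure period. At the GI50, growth is halved.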 Calls of active or inactive are those of the source. Cut-off read from the data, not from the text of the source: active = GI50 up to about 1.1 µM and inactive = higher.

In the case of `Cn1c(=O)c2nc(CCCCc3nc4c(=O)n(C)c(=S)n(C)c4[nH]3)[nH]c2n(C)c1=S`, the GI50 was > 100 µM (inactive) in the experiment on CCRF-CEM; > 100 µM (inactive) in the experiment on 786-0; > 100 µM (inactive) in the experiment on RXF 393; > 100 µM (inactive) in the experiment on COLO 205; over 100 µM with HCT-15; > 100 µM (inactive) in the experiment on MCF7. The GI50 with A549, in the experiment on IGROV-1, in the experiment with BT-549, with DU-145, in the experiment with SK-MEL-28 and with TK-10 was > 100 µM (inactive) in each case. In addition, the GI50 with U-251 is 57.4 µM (inactive); with UACC-62, > 100 µM (inactive); in the experiment on RPMI-8226, > 100 µM (inactive); in the experiment on SN12C, > 100 µM (inactive); in the experiment on T47D it was > 100 µM (inactive); in the experiment on Malme-3M, > 100 µM (inactive). Further, the GI50 in the experiment with SK-OV-3 is 45.2 µM (inactive); in the experiment with SF-539, 40.8 µM (inactive).

Regarding `COC(=O)CN1Cc2cc(C)cc(c2O)CN(CC(=O)OC)Cc2cc(C)cc(c2O)CN(CC(=O)OC)Cc2cc(C)cc(c2O)C1`, the GI50 was 6.76 µM (inactive) in the experiment with CCRF-CEM; > 100 µM (inactive) with 786-0; > 33.7 µM (inactive) in the experiment on RXF 393; > 54.3 µM (inactive) in the experiment with COLO 205; over 66.4 µM in the experiment with HCT-15; > 42 µM (inactive) with MCF7. Moreover, the GI50 is > 100 µM (inactive) with A549; > 100 µM (inactive) with IGROV-1; > 100 µM (inactive) in the experiment with BT-549; > 41 µM (inactive) in the experiment with DU-145; 99.8 µM (inactive) in the experiment on SK-MEL-28; > 79.8 µM (inactive) with TK-10. Moreover, the GI50 in the experiment on U-251 is > 45.8 µM (inactive); with UACC-62 it was > 100 µM (inactive); with RPMI-8226, > 100 µM (inactive); in the experiment with SN12C, > 100 µM (inactive); with T47D, > 20.1 µM (inactive); in the experiment on Malme-3M, > 100 µM (inactive). In addition, the figures for the GI50 with SK-OV-3 and with SF-539 were > 45.5 µM (inactive) and > 80.2 µM (inactive), respectively.

For the molecule `CC1=CC(C)(C)[C@H]2O[C@@]3(O)C[C@]4(C)[C@H]5C[C@@](C(C)C)(O[C@H]4c4ccoc4)O[C@H]4[C@]5(C3)O[C@@]1(O)[C@]24O`, the GI50 in the experiment on CCRF-CEM is > 100 µM (inactive); in the experiment on 786-0 it was 89.1 µM (inactive); with RXF 393, > 100 µM (inactive); in the experiment on COLO 205 it was > 100 µM (inactive); in the experiment with HCT-15 it was over 100 µM; in the experiment on MCF7 it was > 100 µM (inactive). In addition, the GI50 in the experiment with A549 is 75.9 µM (inactive); with IGROV-1, > 100 µM (inactive); in the experiment on BT-549, > 100 µM (inactive); with DU-145, > 100 µM (inactive); in the experiment with SK-MEL-28, 81.8 µM (inactive); in the experiment on TK-10, > 100 µM (inactive). Moreover, the GI50 is 74 µM (inactive) with U-251; > 100 µM (inactive) in the experiment with UACC-62; > 100 µM (inactive) in the experiment on RPMI-8226; > 100 µM (inactive) in the experiment on SN12C; > 100 µM (inactive) in the experiment on T47D; 40.9 µM (inactive) in the experiment with Malme-3M. In addition, the GI50 with SK-OV-3 and in the experiment on SF-539 was > 100 µM (inactive) throughout.

As to `N#CC1=C(C#N)/C(=C(\C#N)C(C#N)C#N)N=C1N`, the GI50 is 8.07 µM (inactive) in the experiment on CCRF-CEM; 39.4 µM (inactive) with 786-0; 31.9 µM (inactive) in the experiment on RXF 393; 26.9 µM (inactive) in the experiment on COLO 205; 22.6 µM in the experiment with HCT-15; 45.8 µM (inactive) in the experiment on MCF7. In addition, the GI50 in the experiment with A549 is 21.4 µM (inactive); with IGROV-1, 50.1 µM (inactive); in the experiment with BT-549, 24.4 µM (inactive); in the experiment on DU-145, 38.9 µM (inactive); in the experiment with SK-MEL-28, 21.1 µM (inactive); in the experiment with TK-10, > 32.6 µM (inactive). Moreover, the GI50 with U-251 was 35.6 µM (inactive); in the experiment on UACC-62, 15.1 µM (inactive); with RPMI-8226, 32.6 µM (inactive); in the experiment with SN12C, 49.4 µM (inactive); in the experiment on T47D, > 100 µM (inactive); with Malme-3M it was 17.1 µM (inactive). The figures for the GI50 with SK-OV-3 and with SF-539 were 57.9 µM (inactive) and 22.4 µM (inactive), respectively.

The values above are taken from ChEMBL document CHEMBL1201862, “PubChem BioAssay data set” (2004).
